{"source": "paper PMC12808100", "about": "“The non-catalytic DNA polymerase ε subunit is an NPF motif recognition protein” (Nature Communications, 2025)", "key": {"[1]": {"molecular_target": "T1, HA-MBP-POLE2 (Homo sapiens, UniProt P56282)", "T1 construct": "POLE2: UniProt ID P56282, residues 1-527; expressed in transfected cells; host or cells: HEK293T", "T1 sequence (P56282 whole entry, the tested form may be a part)": "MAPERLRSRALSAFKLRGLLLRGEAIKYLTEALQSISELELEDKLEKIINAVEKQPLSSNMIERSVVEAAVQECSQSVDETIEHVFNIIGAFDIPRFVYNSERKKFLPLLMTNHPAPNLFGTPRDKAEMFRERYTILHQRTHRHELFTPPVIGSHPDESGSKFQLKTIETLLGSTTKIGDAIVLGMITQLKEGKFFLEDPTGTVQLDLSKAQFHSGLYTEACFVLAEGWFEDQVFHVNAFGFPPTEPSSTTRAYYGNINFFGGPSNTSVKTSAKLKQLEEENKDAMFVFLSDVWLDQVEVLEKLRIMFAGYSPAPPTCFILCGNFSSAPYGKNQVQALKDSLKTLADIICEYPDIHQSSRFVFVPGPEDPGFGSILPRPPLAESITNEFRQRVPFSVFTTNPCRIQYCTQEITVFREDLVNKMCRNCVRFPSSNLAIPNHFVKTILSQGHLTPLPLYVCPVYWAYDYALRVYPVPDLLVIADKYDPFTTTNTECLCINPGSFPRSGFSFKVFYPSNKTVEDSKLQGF", "assay": "Titration nHU, Western blot, HA-MBP-POLE2 in 293T cell extract", "format": "binding", "conditions": "MBP-tagged POLE2, depending on the experimental setup, authors' rebuttal; read-out: dissociation constants", "excerpt": "(§1) To identify the partners of NPF motifs, we used the native holdup (nHU) assay that was recently developed by our team (Fig. 1B). The holdup approach has been extensively used to determine equilibrium dissociation constants of transient interactions mediated by PDZ and SH3 domains, 14-3-3, and human papilloma virus E6 proteins, and even nucleic acid-protein interactions[7],[30]–[35]. In the nHU experiments, a purified bait molecule, or a control compound, is immobilized on a resin at high concentration (typically 10 μM, or higher) and these resin stocks are subsequently mixed with dilute cell extracts. […] This liquid phase contains the unbound prey molecules at near binding equilibrium that can be quantified using selective and quantitative analytical approaches, such as mass spectrometry. Therefore, proteins that interact with the bait molecule will appear to be depleted in the solvent phase and by measuring its relative concentration compared to the control nHU experiment, the degree of binding (θ) can be determined that can be converted to apparent steady-state dissociation constants, according to:1 θ=1−Ifree/Itot=Cbait/Cbait+Kapp where Itot and Ifree are the measured total and bait-depleted equilibrium mass spectrometry total ion intensities of prey proteins, Cbait is the bait molecule concentration and Kapp is the apparent dissociation constant. […]"}, "[2]": {"molecular_target": "DDX18 (Homo sapiens, UniProt Q9NVP1)", "sequence (Q9NVP1 whole entry)": "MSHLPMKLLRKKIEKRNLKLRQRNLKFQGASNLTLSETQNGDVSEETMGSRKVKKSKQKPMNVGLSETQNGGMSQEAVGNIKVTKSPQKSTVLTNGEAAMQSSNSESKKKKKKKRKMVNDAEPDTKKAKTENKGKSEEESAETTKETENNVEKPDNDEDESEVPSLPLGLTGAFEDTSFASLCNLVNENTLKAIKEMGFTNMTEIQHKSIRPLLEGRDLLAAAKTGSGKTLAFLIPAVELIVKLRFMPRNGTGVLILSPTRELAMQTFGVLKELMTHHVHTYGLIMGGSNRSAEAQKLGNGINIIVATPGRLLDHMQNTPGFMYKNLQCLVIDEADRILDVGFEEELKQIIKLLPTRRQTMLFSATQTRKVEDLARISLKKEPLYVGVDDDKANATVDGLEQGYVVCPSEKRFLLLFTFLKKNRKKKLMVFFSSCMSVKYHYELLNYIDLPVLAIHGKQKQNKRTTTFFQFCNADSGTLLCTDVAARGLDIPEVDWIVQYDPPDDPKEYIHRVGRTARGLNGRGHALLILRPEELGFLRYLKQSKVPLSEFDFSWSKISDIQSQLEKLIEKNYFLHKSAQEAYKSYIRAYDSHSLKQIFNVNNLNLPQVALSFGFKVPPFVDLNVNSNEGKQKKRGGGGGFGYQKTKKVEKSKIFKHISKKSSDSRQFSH", "assay": "nHU-MS peptide bait, prey DDX18"}, "[3]": {"molecular_target": "GTPBP4 (Homo sapiens, UniProt Q9BZE4)", "assay": "nHU-MS peptide bait, prey GTPBP4"}, "[4]": {"molecular_target": "CD2AP (Homo sapiens, UniProt Q9Y5K6)", "sequence (Q9Y5K6 whole entry)": "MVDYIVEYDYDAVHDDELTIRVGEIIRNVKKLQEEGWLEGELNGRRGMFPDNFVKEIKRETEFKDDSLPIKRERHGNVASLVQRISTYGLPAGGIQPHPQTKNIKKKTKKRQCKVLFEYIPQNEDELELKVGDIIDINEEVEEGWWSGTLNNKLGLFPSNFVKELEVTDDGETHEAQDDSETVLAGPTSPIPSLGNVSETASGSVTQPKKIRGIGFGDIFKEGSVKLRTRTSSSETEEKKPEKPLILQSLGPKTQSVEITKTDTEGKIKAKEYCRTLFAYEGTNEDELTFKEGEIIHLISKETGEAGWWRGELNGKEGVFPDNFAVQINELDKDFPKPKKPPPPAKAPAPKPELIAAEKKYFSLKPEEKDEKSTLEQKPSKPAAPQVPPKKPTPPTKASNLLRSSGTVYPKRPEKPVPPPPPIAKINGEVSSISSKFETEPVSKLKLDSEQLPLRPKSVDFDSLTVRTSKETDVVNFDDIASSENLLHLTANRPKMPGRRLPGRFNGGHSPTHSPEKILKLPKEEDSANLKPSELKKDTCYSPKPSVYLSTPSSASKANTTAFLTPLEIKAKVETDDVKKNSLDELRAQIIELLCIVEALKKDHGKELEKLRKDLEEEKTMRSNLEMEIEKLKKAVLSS", "assay": "nHU-MS peptide bait, prey CD2AP"}, "[5]": {"molecular_target": "HP1BP3 (Homo sapiens, UniProt Q5SSJ5)", "sequence (Q5SSJ5 whole entry)": "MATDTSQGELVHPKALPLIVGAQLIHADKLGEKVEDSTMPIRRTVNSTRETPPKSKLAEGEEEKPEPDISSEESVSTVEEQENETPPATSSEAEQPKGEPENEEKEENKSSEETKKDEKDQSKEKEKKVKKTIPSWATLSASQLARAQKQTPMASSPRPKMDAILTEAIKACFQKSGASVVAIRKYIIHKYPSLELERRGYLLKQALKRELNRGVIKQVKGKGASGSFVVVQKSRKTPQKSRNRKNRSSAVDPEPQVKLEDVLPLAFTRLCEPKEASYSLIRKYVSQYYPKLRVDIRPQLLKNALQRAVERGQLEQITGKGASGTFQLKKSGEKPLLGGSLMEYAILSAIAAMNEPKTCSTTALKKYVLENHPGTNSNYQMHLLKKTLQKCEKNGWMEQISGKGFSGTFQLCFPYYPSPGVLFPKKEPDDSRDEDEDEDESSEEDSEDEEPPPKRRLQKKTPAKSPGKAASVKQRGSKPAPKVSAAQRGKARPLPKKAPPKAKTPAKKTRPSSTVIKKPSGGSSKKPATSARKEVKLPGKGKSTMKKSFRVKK", "assay": "nHU-MS peptide bait, prey HP1BP3"}, "[6]": {"molecular_target": "T2, EPS15 (Homo sapiens, UniProt P42566)", "T2 construct": "endogenous in cells; host or cells: Jurkat E6.1", "T2 sequence (P42566 1-896)": "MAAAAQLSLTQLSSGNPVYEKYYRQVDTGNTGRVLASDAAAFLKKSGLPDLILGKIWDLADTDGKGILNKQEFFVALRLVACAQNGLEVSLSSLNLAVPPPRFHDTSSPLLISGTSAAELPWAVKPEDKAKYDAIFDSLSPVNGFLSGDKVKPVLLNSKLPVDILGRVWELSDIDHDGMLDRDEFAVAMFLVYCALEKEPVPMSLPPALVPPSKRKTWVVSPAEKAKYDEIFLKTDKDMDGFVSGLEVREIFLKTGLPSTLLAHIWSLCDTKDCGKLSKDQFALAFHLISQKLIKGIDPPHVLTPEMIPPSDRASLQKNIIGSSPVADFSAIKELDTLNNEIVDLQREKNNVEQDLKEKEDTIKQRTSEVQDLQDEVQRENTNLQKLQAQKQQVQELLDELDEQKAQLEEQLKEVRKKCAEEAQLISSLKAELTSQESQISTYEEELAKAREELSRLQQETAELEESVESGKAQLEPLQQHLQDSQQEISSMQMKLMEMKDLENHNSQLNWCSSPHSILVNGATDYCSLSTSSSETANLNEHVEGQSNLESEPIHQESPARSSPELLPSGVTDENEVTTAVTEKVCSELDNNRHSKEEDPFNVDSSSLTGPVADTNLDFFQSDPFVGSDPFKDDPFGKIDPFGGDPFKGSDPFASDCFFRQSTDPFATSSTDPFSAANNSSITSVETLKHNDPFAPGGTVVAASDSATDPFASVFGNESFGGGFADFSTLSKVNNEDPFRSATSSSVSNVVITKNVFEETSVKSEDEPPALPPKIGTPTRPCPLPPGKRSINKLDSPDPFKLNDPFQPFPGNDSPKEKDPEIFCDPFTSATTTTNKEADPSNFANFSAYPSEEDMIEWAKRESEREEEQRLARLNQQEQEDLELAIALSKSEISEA", "assay": "Titration nHU, Western blot, endogenous EPS15 in Jurkat extract", "format": "binding", "conditions": "source data of Fig 5, titration nHU, unit inferred", "excerpt": "To identify the partners of NPF motifs, we used the native holdup (nHU) assay that was recently developed by our team (Fig. 1B). The holdup approach has been extensively used to determine equilibrium dissociation constants of transient interactions mediated by PDZ and SH3 domains, 14-3-3, and human papilloma virus E6 proteins, and even nucleic acid-protein interactions[7],[30]–[35]. In the nHU experiments, a purified bait molecule, or a control compound, is immobilized on a resin at high concentration (typically 10 μM, or higher) and these resin stocks are subsequently mixed with dilute cell extracts. After a relatively long incubation, i.e., 2 h at 4 °C, the liquid phase is separated by centrifugation. This liquid phase contains the unbound prey molecules at near binding equilibrium that can be quantified using selective and quantitative analytical approaches, such as mass spectrometry. Therefore, proteins that interact with the bait molecule will appear to be depleted in the solvent phase and by measuring its relative concentration compared to the control nHU experiment, the degree of binding (θ) can be determined that can be converted to apparent steady-state dissociation constants, according to:1 θ=1−Ifree/Itot=Cbait/Cbait+Kapp where Itot and Ifree are the measured total and bait-depleted equilibrium mass spectrometry total ion intensities of prey proteins, Cbait is the bait molecule concentration and Kapp is the apparent dissociation constant.\nJurkat E6.1 cells (ECACC #88042803, RRID: CVCL_0367) were grown in RPMI (Gibco) medium completed with 10% FBS (Gibco BRL) and 40 μg/ml gentamicin (Gibco/Life Technology). To prepare total cell extracts, Jurkat cells were seeded onto T-175 flasks and grew until 3 × 10^6 cells/ml confluency. Cells were collected by 1000 g x 5 min centrifugation, washed with PBS and then lysed in ice-cold lysis buffer (Hepes-KOH pH 7.5 50 mM, NaCl 150 mM, Triton X-100 1%, cOmplete EDTA-free protease inhibitor cocktail 5x, TCEP 5 mM, glycerol 10%).\nCell suspensions were sonicated 4×20 sec with 1 sec long pulse on ice, then incubated rotating at 4 °C for 30 min. The lysates were centrifuged at 12,000 rpm 4 °C for 20 min and supernatant was kept. Total protein concentration was measured by standard Bradford method (Bio-Rad Protein Assay Dye Reagent #5000006) using a BSA calibration curve (MP Biomedicals #160069, diluted in lysis buffer) on a Bio-Rad SmartSpec 3000 spectrophotometer instrument.\nTitration holdup experiments were carried out as described above using 25 μl saturated resins prepared. Briefly, we mixed control, or bait-saturated resins at various proportions by keeping the total resin amount and resin-analyte ratio constant during the experiment (for 25 μl we used 100 μl cell extract as analyte). In titration experiments with protein baits, bait concentration was determined as described above for the saturated resin stocks. Experiments were carried out at 4 °C for 2 h and recovered supernatants were subjected to western blot or dot blot analysis.\nFor Western blot, samples were mixed with 4x Laemmli Sample Buffer in 3:1 ratio. Equal amounts of samples were loaded on 6-10% acrylamide-gels (generally 16 μg). Transfer was done into PVDF membranes using a Trans-Blot Turbo Transfer System and Trans-Blot Turbo RTA Transfer Kit (BioRad, #1704275). For Dot blot, nHU samples were directly loaded on Nitrocellulose membranes using 48 Sample vacuum manifold (Cleaver Scientific) following the manufacturer’s recommendations. […]"}, "[7]": {"molecular_target": "T3, HA-POLE2 (Homo sapiens, UniProt P56282)", "T3 construct": "POLE2: UniProt ID P56282, residues 1-527; expressed in transfected cells; host or cells: HEK293T", "T3 sequence (P56282 whole entry, the tested form may be a part)": "as the sequence (P56282 whole entry, the tested form may be a part) above", "assay": "Titration nHU, Western blot, HA-POLE2 in 293T cell extract", "format": "binding", "conditions": "HA-tagged POLE2, range over assays, authors' rebuttal; read-out: dissociation constant", "excerpt": "as §1"}, "[8]": {"molecular_target": "RFT1 (Homo sapiens, UniProt Q96AA3)", "sequence (Q96AA3 whole entry)": "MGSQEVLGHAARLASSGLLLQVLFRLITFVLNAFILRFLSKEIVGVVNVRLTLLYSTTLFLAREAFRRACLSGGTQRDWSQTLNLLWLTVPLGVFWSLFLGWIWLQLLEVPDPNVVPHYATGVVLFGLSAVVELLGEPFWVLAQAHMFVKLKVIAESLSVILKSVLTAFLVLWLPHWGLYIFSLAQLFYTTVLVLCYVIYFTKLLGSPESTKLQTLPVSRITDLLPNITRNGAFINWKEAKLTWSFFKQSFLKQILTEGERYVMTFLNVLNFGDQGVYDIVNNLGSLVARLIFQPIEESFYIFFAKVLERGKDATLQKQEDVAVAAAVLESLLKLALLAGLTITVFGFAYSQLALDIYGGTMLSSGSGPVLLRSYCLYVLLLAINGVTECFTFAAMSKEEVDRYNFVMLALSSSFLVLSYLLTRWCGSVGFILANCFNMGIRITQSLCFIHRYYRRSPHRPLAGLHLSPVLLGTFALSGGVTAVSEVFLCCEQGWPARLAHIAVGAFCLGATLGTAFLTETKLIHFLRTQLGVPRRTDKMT", "assay": "nHU-MS peptide bait, prey RFT1"}}, "note": "pKd: −log10 of the molar value. Residues, ends and D or L forms follow the SMILES beside them.", "data": [{"smiles": "CC(C)C[C@H](NC(=O)[C@H](CCCNC(=N)N)NC(=O)[C@H](C)NC(=O)[C@H](Cc1ccccc1)NC(=O)[C@@H]1CCCN1C(=O)[C@H](CC(N)=O)NC(=O)[C@H](CCCNC(=N)N)NC(=O)[C@H](CCCNC(=N)N)NC(=O)[C@H](C)NC(=O)[C@H](C)NC(=O)[C@H](C)NC(=O)[C@@H]1CCCN1C(=O)CN)C(=O)N[C@@H](CC(=O)O)C(=O)N[C@@H](CC(N)=O)C(=O)N[C@@H](CCCNC(=N)N)C(=O)N1CCC[C@H]1C(=O)N[C@@H](CCCNC(=N)N)C(N)=O", "note": "[DONSON_71-88] (H-GPAAARRNPFARLDNRPR-NH2)", "values": [{"measurement": "pKd", "setting": "[1]", "result": "5.00 to 6.00"}, {"measurement": "pKd", "setting": "[2]", "result": 4.53}, {"measurement": "BI", "setting": "[2]; prey DDX18, MS2_Varjosalo", "result": 0.2529}, {"measurement": "pKd", "setting": "[3]", "result": 4.53}, {"measurement": "BI", "setting": "[3]; prey GTPBP4, MS2_Varjosalo", "result": 0.252}, {"measurement": "pKd", "setting": "[4]", "result": 4.73}, {"measurement": "BI", "setting": "[4]; prey CD2AP, MS7_Varjosalo", "result": 0.3476}, {"measurement": "pKd", "setting": "[5]", "result": 4.51}, {"measurement": "BI", "setting": "[5]; prey HP1BP3, MS2_Varjosalo", "result": 0.2425}, {"measurement": "pKd", "setting": "[6]", "result": "< 4.22"}, {"measurement": "pKd", "setting": "[7]", "result": "6.30 to 6.52"}, {"measurement": "pKd", "setting": "[8]", "result": 4.62}, {"measurement": "BI", "setting": "[8]; prey RFT1, MS7_Varjosalo", "result": 0.292}]}]}
